How the values were obtained:
OT-I splenocytes = test: OT-I splenocyte culture with purine/pyrimidine pathway compounds; assay type: cell-based, mouse
Experimental: We therefore tested if purine and pyrimidine nucleotides have similar effects as N-Acetylneuraminic acid to help maintain less differentiated phenotypes of T cells during expansion. OT-I splenocytes were cultured with 500 nM […] peptide (OVA257-264) for three days at initial cell density of 1×10^6/mL to activate and expand the CD8+ T cell population. Different concentrations of the products or intermediates in purine or pyrimidine de novo synthesis pathways were added on day 3. The tested compounds include, e.g., guanosine, deoxyguanosine, adenosine, deoxyadenosine, inosine, xanthosine, orotidine, uridine, cytidine, deoxycytidine, thymidine, deoxythymidine, 5-Aminoimidazole-4-carboxamide ribonucleotide (AICAR), orotate, and dihydroorotate. The phenotype of expanded T cells were analyzed on day 5.

OT-1 cells [1] = test: OT-I-Tcf7GFP splenocyte screen: proliferation and Tim3−TCF-1+ ratio; assay type: cell-based, mouse; details: Day7; for Tim3^−TCF-1^+ ratio of CD8^+ T cells (%): w/o 2.6; for activity at 80000 µM / activity at 60000 µM: Mus musculus, Splenocyte, 168 h, OT-1 cells, read-out: Proliferation fold, Normalized to W/O
Experimental: Cell number was recorded on day 3 and day 7. On day 7, cells were stained with anti-CD8a (PerCP-Cy5.5) and anti-Tim3 (BV421) antibodies for flow cytometry or plate reader analysis.
Because TCF1 expression positively correlates with T cell stemness, the greater signal of EGFP a T cell expresses, the less differentiated the T cell is. Furthermore, if the compound also facilitates T cells proliferation, there would be more T cells per well in comparison to the untreated control. Therefore, a compound that not only maintains TCF-1 expression but also facilitates T cell growth would produce the strongest green fluorescence intensity. […] GlcA stands for glucuronic acid.

P14 cells = test: P14 splenocyte in vitro activation, re-stimulation and expansion; assay type: cell-based, mouse; details: for Fold of proliferation, Normalized to W/O: P14 cells
P14 CD8+ T cells = assay type: in vivo, mouse; details: 14 dpi LCMV-Cl13; cells treated in vitro, vs untreated
B16-OVA tumor = assay type: in vivo, mouse; details: adoptive transfer of sugar-treated OT-1 T cells; vs untreated T cells
Experimental: Naïve splenocytes from OT-1 mice were stimulated in vitro with OVA257-264 (500 nM) and IL-2 (60 IU/mL) in the presence or absence of an added compound for 3 days at a density of 1 million/mL (100 uL/well in 96/well plate), then expanded for 4 days. On day 7, PD-1, Tim3 and TCF-1 expressions were assessed by flow cytometry by staining cells with anti-CD8a (PerCP-Cy5.5), anti-Tim3 (BV421) and anti-TCF-1 (AF488) antibodies. For adoptive transfer, 0.6M B16-OVA cells (6×10^5) were inoculated subcutaneously 3 to 5 days before transfer in C57BL/6. On the day of adoptive transfer, mice were irradiated with 5 Gy X-ray, randomized according to tumor size, and intravenously injected with 0.2-0.3M of CD8+OT-1 T cells (2×10^5) expanded under different conditions, followed by administration of 50000 IU IL-2 every 12 h for four days. In the control group, mice were injected with cell-free vehicle only. For assessment of adoptive transfer of OT-1 CD8+ T cells activated and expanded by contacting the cells with fructose, on day 9 after transfer, anti-PD-1 (100 ug/mouse) was administered to the mice that had received T cell transfer. For assessment of adoptive transfer of OT-1 CD8+ T cells activated and expanded by contacting cells with Neu5Ac, on day 14 and day 21 after transfer, anti-PD-1 (100 ug/mouse) was administered to the mice that had received T cell transfer. The tumor growth was monitored every 3 to 4 days by measuring tumor size. Percent survival was also monitored and recorded within a period of 40 days post treatment. To evaluate tumor infiltrating OT-1 T cells, 0.6M B16-OVA cells (6×10^5) were inoculated subcutaneously 3 to 5 days before transfer in C57BL/6. On the day of adoptive transfer, mice were irradiated with 5 Gy X-ray, randomized according to tumor size, and intravenously injected with 0.2-0.3M of CD8+OT-1 T cells (2×10^5) expanded under different conditions, followed by administration of 50000 IU IL-2 every 12 h for four days. Tumors were then isolated and assessed for percentage of OT-I T cells from the total CD8+ T cells and OT-1 T cell number per gram of tumor tissue. To evaluate apoptosis, Naïve OT-1 splenocytes were stimulated by OVA257-264 (500 nM) without IL-2 in the presence of absence of sugars for 5 days followed by using Annexin V Apoptosis detection kit (Biolegend). […] To evaluate other cellular characteristics, naïve OT-1 splenocytes were stimulated by OVA257-264 (500 nM) with IL-2 (60 IU/mL) in the presence or absence of sugars for 7 or 8 days. On day 7 or 8 cells were taken and analyzed by assessment of ROS, NADPH/NADP+ ratio, and GSH/GSSG ratio.

OT-1 CD8+ T cells = test: OT-1 splenocyte activation and expansion, day 7 flow cytometry; assay type: cell-based, mouse; details: for percentage of Tim3−TCF-1+ CD8+ T cells (in words): OT-1 cells day 7, compared with fructose or sucrose
Experimental: Naïve splenocytes from OT-1 mice were stimulated in vitro with OVA257-264 (500 nM) and IL-2 (60 IU/mL) in the presence or absence of an added compound for 3 days at a density of 1 million/mL (100 uL/well in 96/well plate), then expanded for 4 days. On day 7, PD-1, Tim3 and TCF-1 expressions were assessed by flow cytometry by staining cells with anti-CD8a (PerCP-Cy5.5), anti-Tim3 (BV421) and anti-TCF-1 (AF488) antibodies. For adoptive transfer, 0.6M B16-OVA cells (6×10^5) were inoculated subcutaneously 3 to 5 days before transfer in C57BL/6. On the day of adoptive transfer, mice were irradiated with 5 Gy X-ray, randomized according to tumor size, and intravenously injected with 0.2-0.3M of CD8+OT-1 T cells (2×10^5) expanded under different conditions, followed by administration of 50000 IU IL-2 every 12 h for four days. In the control group, mice were injected with cell-free vehicle only. For assessment of adoptive transfer of OT-1 CD8+ T cells activated and expanded by contacting the cells with fructose, on day 9 after transfer, anti-PD-1 (100 ug/mouse) was administered to the mice that had received T cell transfer. For assessment of adoptive transfer of OT-1 CD8+ T cells activated and expanded by contacting cells with Neu5Ac, on day 14 and day 21 after transfer, anti-PD-1 (100 ug/mouse) was administered to the mice that had received T cell transfer. The tumor growth was monitored every 3 to 4 days by measuring tumor size. Percent survival was also monitored and recorded within a period of 40 days post treatment. To evaluate tumor infiltrating OT-1 T cells, 0.6M B16-OVA cells (6×10^5) were inoculated subcutaneously 3 to 5 days before transfer in C57BL/6. […] Tumors were then isolated and assessed for percentage of OT-I T cells from the total CD8+ T cells and OT-1 T cell number per gram of tumor tissue. […] On day 7 or 8 cells were taken and analyzed by assessment of ROS, NADPH/NADP+ ratio, and GSH/GSSG ratio.

OT-1 cells [2] = test: OT-1 cells treated with K+ or p38i; assay type: cell-based, mouse
Excerpt: We also tested two small molecules (KCl and p38i) reported in papers. (Science 2019, 363, (6434); Cancer Cell 2020, 37, (6), 818-833 e9).

[3] = added together with N-Acetylneuraminic acid on day 3, analyzed day 5

NC(=O)c1ncn([C@@H]2O[C@H](COP(=O)(O)O)[C@@H](O)[C@H]2O)c1N [AICAR, 5-Aminoimidazole-4-carboxamide ribonucleotide]
cell proliferation (OT-I splenocytes; [3]): without significant impact on cell proliferation

O=C(CO)[C@@H](O)[C@H](O)[C@H](O)CO [Fructose, fructose]
Tim3^−TCF-1^+ ratio of CD8^+ T cells (%) (OT-1 cells [1]; 80 mM): 43.9%
activity at 80000 µM (OT-1 cells [1]; 80 mM): 109%
Fold of proliferation, Normalized to W/O (P14 cells; Day6, 80 mM): 2.10 fold
Tim3^−TCF-1^+ ratio of CD8^+ T cells (%) (P14 cells; Day6, 80 mM, w/o 55.0): 87.9%
Fold of proliferation, Normalized to W/O (P14 cells; Day9, 80 mM): 2.94 fold
Tim3^−TCF-1^+ ratio of CD8^+ T cells (%) (P14 cells; Day9, 80 mM, w/o 3.5): 48.9%
percentages and total numbers of expanded virus-specific P14 CD8+ T cells in the spleen and liver (P14 CD8+ T cells): significantly higher
capabilities to control tumor growth (B16-OVA tumor): significantly better

O=C[C@H](O)[C@@H](O)[C@@H](O)[C@H](O)CO [Galactose, galactose]
Fold of proliferation, Normalized to W/O (P14 cells; Day6, 80 mM): 1.59 fold
Tim3^−TCF-1^+ ratio of CD8^+ T cells (%) (P14 cells; Day6, 80 mM, w/o 55.0): 88.9%
Fold of proliferation, Normalized to W/O (P14 cells; Day9, 80 mM): 1.87 fold
Tim3^−TCF-1^+ ratio of CD8^+ T cells (%) (P14 cells; Day9, 80 mM, w/o 3.5): 37.4%
T cell proliferation (OT-1 CD8+ T cells; 80 mM, OT-1 cells): significantly suppressed
percentage of Tim3−TCF-1+ CD8+ T cells (in words) (OT-1 CD8+ T cells): increased the percentage of Tim3−TCF-1+ CD8+ T cells but at a lower level

O=C[C@H](O)[C@@H](O)[C@H](O)[C@H](O)C(=O)O [GlcA, glucuronic acid]
Tim3^−TCF-1^+ ratio of CD8^+ T cells (%) (OT-1 cells [1]; 60 mM): 65.3%
activity at 60000 µM (OT-1 cells [1]; 60 mM): 97%

N#Cc1cc(Nc2ncc3c(n2)CCCCC3=O)cs1 [Inhibitor G6PDi-1, reference compound]
cell proliferation (OT-I splenocytes; added on day 3, analyzed day 5): without significant impact on cell proliferation
increase of the proportion of Tim3−TCF1+ T cells by a factor (OT-I splenocytes; added on day 3, analyzed day 5): 1.5

[Cl-].[K+] [K^+, KCl]
slowed down T cell proliferation (P14 cells; compared to untreated T cells): 10-20%
Tim3−TCF-1+ ratio of OT-1 cells (in words) (OT-1 cells [2]): increased
proliferation of OT-1 cells (in words) (OT-1 cells [2]): slightly inhibit
Proliferation fold, Normalized to W/O (OT-1 cells [2]; Day 7, 40 mM, OT-1 cells): 0.87 fold
Tim3^−TCF-1^+ ratio of CD8^+ T cells (%) (OT-1 cells [2]; Day 7, 40 mM, W/O 9.5): 80.7%

OC[C@H]1O[C@@H](O[C@H]2[C@H](O)[C@@H](O)C(O)O[C@@H]2CO)[C@H](O)[C@@H](O)[C@H]1O (stereo partly shown) [Lactose, lactose]
Tim3^−TCF-1^+ ratio of CD8^+ T cells (%) (OT-1 cells [1]; 60 mM): 25.6%
activity at 60000 µM (OT-1 cells [1]; 60 mM): 63%
Fold of proliferation, Normalized to W/O (P14 cells; Day6, 60 mM): 1.87 fold
Tim3^−TCF-1^+ ratio of CD8^+ T cells (%) (P14 cells; Day6, 60 mM, w/o 55.0): 79.4%
Fold of proliferation, Normalized to W/O (P14 cells; Day9, 60 mM): 1.76 fold
Tim3^−TCF-1^+ ratio of CD8^+ T cells (%) (P14 cells; Day9, 60 mM, w/o 3.5): 23.7%
percentages and total numbers of expanded virus-specific P14 CD8+ T cells in the spleen and liver (P14 CD8+ T cells): significantly higher
percentage of Tim3−TCF-1+ CD8+ T cells (in words) (OT-1 CD8+ T cells): increased the percentage of Tim3−TCF-1+ CD8+ T cells but at a lower level
capabilities to control tumor growth (B16-OVA tumor): significantly better

CCN(c1cc(-c2ccc(CN3CCOCC3)cc2)cc(C(=O)NCc2c(C)cc(C)[nH]c2=O)c1C)C1CCOCC1 [Taz, Tazemetostat]
cell survival when added on day 0 together with OVA257-264 peptide (OT-I CD8 T cells): all cells were found dead
fold increase in progenitor exhausted cells (OT-I CD8 T cells; day 7, Taz (3-7), 400 nM): 2.5-3.5 fold
progenitor exhausted cells (Tim3^−TCF-1^+) (OT-I CD8 T cells; day 7, Taz (3-7), 400 nM, without Taz 8.47%): 27.7%

OC[C@H]1O[C@H](O[C@H]2O[C@H](CO)[C@@H](O)[C@H](O)[C@H]2O)[C@H](O)[C@@H](O)[C@@H]1O [Trehalose, trehalose]
Tim3^−TCF-1^+ ratio of CD8^+ T cells (%) (OT-1 cells [1]; 80 mM): 35.4%
activity at 80000 µM (OT-1 cells [1]; 80 mM): 84%
Fold of proliferation, Normalized to W/O (P14 cells; Day6, 80 mM): 1.42 fold
Tim3^−TCF-1^+ ratio of CD8^+ T cells (%) (P14 cells; Day6, 80 mM, w/o 55.0): 83.2%
Fold of proliferation, Normalized to W/O (P14 cells; Day9, 80 mM): 1.47 fold
Tim3^−TCF-1^+ ratio of CD8^+ T cells (%) (P14 cells; Day9, 80 mM, w/o 3.5): 34.6%

Nc1nc2c(ncn2[C@@H]2O[C@H](CO)[C@@H](O)[C@H]2O)c(=O)[nH]1 [guanosine]
cell proliferation (OT-I splenocytes; [3]): without significant impact on cell proliferation

Source: patent US20250027930A1, “SMALL MOLECULES FOR REPROGRAMING ANTI-TUMOR IMMUNITY OF T CELLS” (THE SCRIPPS RESEARCH INSTITUTE, priority 2021, published 2025)
